In patent US20240199677A1, “GLYCOSYLTRANSFERASE INHIBITORS” (CALIFORNIA INSTITUTE OF TECHNOLOGY, priority 2018, published 2024):
Converted amounts (≈) assume the structure as drawn. Read-outs that look alike come from different tables or passages of the source. Each block holds one molecule with its values, some of them ahead of it.

Assays:
C. difficile spores = assay: Spore viability testing; assay type: cell-based; conditions: for Effect on viability of C. difficile spores (CFU): x2 MIC, 24 hours; for Inhibition of spore germination: x5 MIC
C. difficile ATCC43596 = assay: Minimum inhibitory concentration assay; conditions: for MIC: Clostridioides difficile, ATCC43596, 48 h, read-out: C. difficile ATCC43596 MIC; for C. difficile ATCC43596 MIC: 48 h, 37° C.
Vero cells = assay: Cytotoxicity MTT assay, Vero cells; assay type: cell-based, monkey
Method: (§1) Cytotoxicity Assays. Cytotoxicity assays were performed using Vero monkey kidney (ATCC CCL-81) and HepG2 human hepatoblastoma cell (ATCC HB-8065) lines. Vero or HepG2 cells were cultured in 75 cm^2 flasks and transferred to 96-well cell culture plates using ATCC-formulated Eagle's minimum essential medium containing 10% FBS, penicillin, and streptomycin. Serially diluted aliquots of each test compound at concentrations ranging from 0.78-200 μg/mL were added to the cells. […] The plates were incubated and cytotoxic effects were determined via the MTT assay.
(§2) Selected molecules were tested for cytotoxicity (IC50) in cancer and healthy cells via a MTT colorimetric assay.
(§3) Cytotoxicity Assays. For Vero cells: Vero cell was cultured in Complete eagle's minimum essential growth medium (EMEM) containing L-glutamine, sodium pyruvate, minimum essential amino acids, penicillin-streptomycin and 10% fetal bovine serum. Inoculating number of cells were 400,000 cells/mL and a final 40,000 cells/well. After 72 h of exposure of molecules to this cell line at concentrations ranging from 0.78 to 200 μg/mL, the culture medium was changed to complete EMEM without phenol red before addition of yellow tetrazolium dye; MTT. Viability was assessed on the basis of cellular conversion of MTT into a purple formazan product. The absorbance of the colored formazan product was measured at 570 nm by BioTek Synergy HT Spectrophotometer. Linearity of the MTT response to the cell number was determined.

Hemolysis, sheep blood = assay type: cell-based; conditions: sheep, sheep blood
MraY = conditions: read-out: MraY inhibition IC50
AsPc-1 cells [1] = assay: Synergistic assay (checkerboard), 11 and Gemcitabine; assay type: cell-based
Method: (§4) The FIC index was calculated according to the following equation. ΣFIC=FICA+FICB=CA/MICA+CB/MICB where MICA and MICB are MIC of drugs A and B, CA and CB are the concentrations of drugs A and B used in combination. In these interaction studies, ΣFIC of less than 0.5 represents synergistic activity.
These experiments were performed in the same manner as those of Example 7.

Panc-1 = assay: Cytotoxicity MTT assay, Panc-1; assay type: cell-based
Method: as §2
(§5) Each cell was cultured in recommended medium by ATCC, and the IC50 data were obtained with each cell line.

SK-OV-3 = assay: Cytotoxicity MTT assay, SK-OV-3; assay type: cell-based
Method: as §2, §5

HPAF-II = assay: Cytotoxicity MTT assay, HPAF-II; assay type: cell-based
Method: as §2, §5

LoVo = assay: Cytotoxicity MTT assay, LoVo; assay type: cell-based
Method: as §2, §5

[2] = Cytotoxicity MTT assay, Vero cells; assay type: cell-based, monkey; conditions: monkey
Method: as §1, §2, §3

AsPc-1 = assay: Cytotoxicity MTT assay, AsPc-1; assay type: cell-based
Method: as §2, §5

KB = assay: Cytotoxicity MTT assay, KB; assay type: cell-based
Method: as §2, §5

L12210 = assay: Cytotoxicity MTT assay, L12210; assay type: cell-based
Method: as §2, §5

AsPc-1 cells [3] = assay: Synergistic assay (checkerboard), 11 and Paclitaxel; assay type: cell-based
Method: as §4

MDA-MB-435S = assay: Cytotoxicity MTT assay, MDA-MB-435S; assay type: cell-based
Method: as §2, §5

HepG2 = assay: Cytotoxicity MTT assay, HepG2; assay type: cell-based; conditions: human
M. jannaschii AgIH = M. jannaschii AgIH (Methanocaldococcus jannaschii (strain ATCC 43067 / DSM 2661 / JAL-1 / JCM 10045 / NBRC 100440) (Methanococcus jannaschii), UniProt Q58513); conditions: read-out: AgIH inhibition IC50, M. jannaschii AgIH
Caco-2 = assay: Cytotoxicity MTT assay, Caco-2; assay type: cell-based; conditions: human
Method: as §2, §5

Sequence of M. jannaschii AgIH (Q58513 whole entry, looked up): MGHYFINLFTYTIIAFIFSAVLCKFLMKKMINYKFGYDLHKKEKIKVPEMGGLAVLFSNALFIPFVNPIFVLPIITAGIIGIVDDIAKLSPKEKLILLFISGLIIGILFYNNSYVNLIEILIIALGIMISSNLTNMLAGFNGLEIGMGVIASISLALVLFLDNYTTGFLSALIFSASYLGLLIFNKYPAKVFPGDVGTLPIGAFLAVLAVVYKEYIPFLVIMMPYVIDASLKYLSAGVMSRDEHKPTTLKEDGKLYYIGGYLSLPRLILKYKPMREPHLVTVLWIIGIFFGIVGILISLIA

MIC (C. difficile ATCC43596): 25 µg/mL (≈ 34.7 µM)
Molecule: CCCCCCCc1ccc(NC(=O)CCCN(C)[C@H](C(N)=O)[C@H](OC2O[C@H](CN)[C@@H](O)[C@H]2O)[C@H]2O[C@@H](n3ccc(=O)[nH]c3=O)C(O)[C@H]2O)cc1 (stereo partly drawn) [Compound 9]
Effect on viability of C. difficile spores (CFU) (C. difficile spores): caused loss of viability of C. difficile spores
Anti-C. difficile activity (C. difficile ATCC43596): display anti-C. difficile activity

Molecule: CCCCCCCc1ccc(NC(=O)CCCN[C@H](C(N)=O)[C@H](OC2O[C@H](CN)[C@@H](O)[C@H]2O)[C@H]2O[C@@H](n3ccc(=O)[nH]c3=O)C(O)[C@H]2O)cc1 (stereo partly drawn) [Compound 10]
IC50 (Vero cells; Primates, Vero, Table 2, read-out: Vero cells IC50): 7080 nM
Effect on viability of C. difficile spores (CFU) (C. difficile spores): caused loss of viability of C. difficile spores
Anti-C. difficile activity (C. difficile ATCC43596): display anti-C. difficile activity
IC50 (Hemolysis, sheep blood): 70000 nM

MIC (C. difficile ATCC43596): 50 µg/mL (≈ 56.8 µM)
Molecule: CN(CCCC(=O)NCc1ccc(N2CCC(Oc3ccc(C(F)(F)F)cc3)CC2)cc1)[C@H](C(N)=O)[C@H](O[C@@H]1O[C@H](CN)[C@@H](O)[C@H]1O)[C@H]1O[C@@H](n2ccc(=O)[nH]c2=O)[C@H](O)C1O (stereo partly drawn) [Compound 12]
Anti-C. difficile activity (C. difficile ATCC43596): display anti-C. difficile activity

Molecule: CN(CCCN)[C@H](C(=O)O)[C@H](O[C@@H]1O[C@H](CN)[C@@H](O)[C@H]1O)[C@H]1O[C@@H](n2ccc(=O)[nH]c2=O)[C@H](O)[C@@H]1O [FR-900493 (1), FR-900493, reference compound]
IC50 (MraY): 25000 nM
C. difficile ATCC43596 MIC (C. difficile ATCC43596): >50 µg/mL

IC50 (AsPc-1 cells [1]; Homo sapiens, ASPC1, Gemcitabine alone, AsPc-1 cells, read-out: IC50 B): 390 nM
Molecule: Nc1ccn([C@@H]2O[C@H](CO)[C@@H](O)C2(F)F)c(=O)n1 [Gemcitabine, reference compound]
Concentration in combination resulting in AsPc-1 cell death (AsPc-1 cells [1]; as low as, 11 together with Gemcitabine): 0.977 µM

IC50 (AsPc-1 cells [3]; Homo sapiens, ASPC1, Paclitaxel alone, AsPc-1 cells, read-out: IC50 B): 550 nM
Molecule: CC(=O)O[C@H]1C(=O)[C@@]2(C)[C@H]([C@H](OC(=O)c3ccccc3)[C@]3(O)C[C@H](OC(=O)[C@H](O)[C@@H](NC(=O)c4ccccc4)c4ccccc4)C(C)=C1C3(C)C)[C@]1(OC(C)=O)CO[C@@H]1C[C@@H]2O [Taxol, Paclitaxel]
IC50 (Panc-1; Homo sapiens, PANC-1, read-out: Cytotoxicity IC50 Panc-1): 20 nM
IC50 (SK-OV-3; Homo sapiens, SK-OV-3, read-out: Cytotoxicity IC50 SK-OV-3): 1080 nM
IC50 (HPAF-II; Homo sapiens, HPAF-II, read-out: Cytotoxicity IC50 HPAF-II): 20 nM
IC50 (LoVo; Homo sapiens, LoVo, read-out: Cytotoxicity IC50 LoVo): 57 nM
IC50 at 72 h [2]: 190 nM
IC50 (AsPc-1; Homo sapiens, ASPC1, read-out: Cytotoxicity IC50 AsPc-1): 190 nM
IC50 (KB; Homo sapiens, KB, read-out: Cytotoxicity IC50 KB): 790 nM
IC50 (L12210; read-out: Cytotoxicity IC50 L12210): 550 nM
Taxol concentration to kill AsPc-1 cells when combined with 11 (AsPc-1 cells [3]; as low as, combined with 11): 7 nM
IC50 (MDA-MB-435S; Homo sapiens, MDA-MB-435S, read-out: Cytotoxicity IC50 MDA-MB-435S): 110 nM

Molecule: CC(=O)NC[C@H]1CN(c2ccc(N3CCOCC3)c(F)c2)C(=O)O1 [linezolid, reference compound]
Inhibition of spore germination (C. difficile spores): did not inhibit the spore germination

Molecule: Cc1ncc([N+](=O)[O-])n1CCO [metronidazole, reference compound]
Inhibition of spore germination (C. difficile spores): did not inhibit the spore germination

Molecule: CN[C@H](CC(C)C)C(=O)N[C@H]1C(=O)N[C@@H](CC(N)=O)C(=O)N[C@H]2C(=O)N[C@H]3C(=O)N[C@H](C(=O)N[C@H](C(=O)O)c4cc(O)cc(O)c4-c4cc3ccc4O)[C@H](O)c3ccc(c(Cl)c3)Oc3cc2cc(c3O[C@@H]2O[C@H](CO)[C@@H](O)[C@H](O)[C@H]2O[C@H]2C[C@](C)(N)[C@H](O)[C@H](C)O2)Oc2ccc(cc2Cl)[C@H]1O [vancomycin, reference compound]
Inhibition of spore germination (C. difficile spores): did not inhibit the spore germination
MIC (C. difficile ATCC43596): 2.5 µg/mL (≈ 1.73 µM)

Molecule: Tunicamycin
IC50 (HepG2): 190 nM
IC50 (Panc-1; human): 625 nM
IC50 (SK-OV-3; human): 1850 nM
IC50 (HPAF-II; human): < 98 nM
IC50 (LoVo; human): 1700 nM
IC50 (M. jannaschii AgIH): 13300 nM
IC50 (Vero cells; Table 2, read-out: Vero cells IC50): 120 nM
IC50 (Vero cells; Table 3, 72 h exposure, read-out: Cytotoxicity IC50 Vero): 120 nM
C. difficile ATCC43596 MIC (C. difficile ATCC43596): >50 µg/mL
IC50 (AsPc-1; human): 460 nM
IC50 (KB; human): 2500 nM
IC50 (L12210; mouse): 1700 nM
IC50 (Caco-2): 950 nM
IC50 (MDA-MB-435S; human): 900 nM
